Calls of active or inactive are those of the source.
Assays:
Cytochrome P450 3A4 = Cytochrome P450 3A4 (Homo sapiens, UniProt P08684); settings: Potency;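 further: confirmatory qHTS run detecting inhibitors and substrates of CYP3A4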
[1] = OVCAR8 cell viability loss – plate reader, dry powder samples, PAX8 project, dose response (AID 743197); assay type: functional, cell-based; settings: OVCAR-8
[2] = OVCAR-3 cell viability loss – plate reader, dry powder samples, PAX8 inhibitor project, dose response (AID 743044); assay type: functional, cell-based
[3] = P. falciparum Dd2 growth inhibitors, dose response, SYBR Green, cherry-picked samples (AID 1159567); assay type: functional, cell-based
Paired box protein Pax-8 = Paired box protein Pax-8 (Homo sapiens, UniProt Q06710); test: PAX8 transcriptional activity inhibition in RMG-I – RMG-I cells, luciferase, cherry-pick, dose response (AID 687027); assay type: functional, cell-based;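 further: luciferase reporter driven by Pax8 target thyroperoxidase promoter measured by SteadyGlo luminescence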
[4] = THP-1 cell cytotoxicity, dose response, cytotoxicity control for non-replicating M. tuberculosis project (AID 489025); assay type: functional
cells [5] = assay type: functional
[6] = molecular target: T1, DNA repair and recombination protein RAD54-like (Homo sapiens, UniProt Q92698); test: RAD54 Holliday junction migration blockers – biochemical, fluorescence, cherry-picked samples, dose series, confirmation (AID 651657); assay type: functional
T1 sequence (Q92698 whole entry): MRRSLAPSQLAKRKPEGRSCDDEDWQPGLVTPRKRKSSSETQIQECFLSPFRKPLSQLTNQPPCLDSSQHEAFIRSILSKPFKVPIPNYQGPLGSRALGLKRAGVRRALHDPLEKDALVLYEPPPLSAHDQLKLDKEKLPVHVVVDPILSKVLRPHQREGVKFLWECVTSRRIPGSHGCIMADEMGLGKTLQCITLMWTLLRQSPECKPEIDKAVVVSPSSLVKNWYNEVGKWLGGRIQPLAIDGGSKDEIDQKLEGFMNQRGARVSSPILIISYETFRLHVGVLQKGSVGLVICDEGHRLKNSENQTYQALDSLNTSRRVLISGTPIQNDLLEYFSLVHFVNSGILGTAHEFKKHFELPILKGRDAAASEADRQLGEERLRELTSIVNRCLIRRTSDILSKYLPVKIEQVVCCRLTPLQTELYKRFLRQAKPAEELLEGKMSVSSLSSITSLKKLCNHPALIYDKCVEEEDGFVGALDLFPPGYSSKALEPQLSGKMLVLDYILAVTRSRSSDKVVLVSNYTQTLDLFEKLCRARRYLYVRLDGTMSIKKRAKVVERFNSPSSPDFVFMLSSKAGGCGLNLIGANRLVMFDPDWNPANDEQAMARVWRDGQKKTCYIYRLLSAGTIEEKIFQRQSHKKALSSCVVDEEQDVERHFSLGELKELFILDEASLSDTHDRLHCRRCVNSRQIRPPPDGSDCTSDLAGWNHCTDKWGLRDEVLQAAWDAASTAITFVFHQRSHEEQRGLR

[7] = molecular target: T2, Ubiquitin-conjugating enzyme E2 N (Homo sapiens, UniProt P61088); assay type: functional;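 further: Dose-response confirmation in a TR-FRET assay detecting UBC13-driven polyubiquitin chain formation, inhibition measured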
T2 sequence (P61088 whole entry): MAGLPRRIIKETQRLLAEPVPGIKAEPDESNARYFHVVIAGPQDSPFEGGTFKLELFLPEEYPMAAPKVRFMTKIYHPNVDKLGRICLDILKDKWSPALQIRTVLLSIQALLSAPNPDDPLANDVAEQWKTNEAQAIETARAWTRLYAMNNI

[8] = Luminescence Cell-Based Dose Response HTS to Identify Activators of Luciferase Translation or Activity in H4 […] Cells. [Related pubchem assays: 1829 (Project Summary), 1814 (Primary HTS)]; assay type: functional
H4 = test: Luminescence Cell-Based Dose Response HTS to Identify Activators of 5'UTR Stem-Loop Driven Prion Protein mRNA Translation in H4 Neuroglioblastoma Cells. [Related pubchem assays: 1829 (Project Summary), 1814 (Primary HTS)]; assay type: functional; settings: Homo sapiens
[9] = Luminescence Cell-Based Dose Confirmation HTS to Identify Activators of 5'UTR Stem-Loop Driven Alpha-Synuclein mRNA Translation in H4 Neuroglioblastoma Cells. [Related pubchem assays: 1829 (Project Summary), 1814 (Primary HTS)]; assay type: functional
cells [10] = assay type: functional, cell-based
[11] = molecular target: T3, Trace amine-associated receptor 1 (Homo sapiens, UniProt Q96RJ0); test: Fluorescence-based cell-based high throughput dose response assay to identify agonists of the human trace amine associated receptor 1 (TAAR1).; assay type: functional
T3 sequence (Q96RJ0 whole entry): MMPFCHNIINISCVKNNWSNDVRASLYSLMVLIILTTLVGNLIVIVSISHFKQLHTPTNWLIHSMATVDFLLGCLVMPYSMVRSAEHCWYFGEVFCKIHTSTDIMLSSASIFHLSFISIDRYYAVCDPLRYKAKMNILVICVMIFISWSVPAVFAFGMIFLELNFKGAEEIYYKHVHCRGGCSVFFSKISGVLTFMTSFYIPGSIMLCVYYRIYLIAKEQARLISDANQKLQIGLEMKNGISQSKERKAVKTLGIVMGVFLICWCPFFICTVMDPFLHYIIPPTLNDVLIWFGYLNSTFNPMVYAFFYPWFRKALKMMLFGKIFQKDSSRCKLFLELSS

cells [12] = assay type: functional, cell-based; remark: listed apart in the source
[13] = molecular target: T3, Trace amine-associated receptor 1; test: Counterscreen for agonists of the human trace amine associated receptor 1 (hTAAR1): Fluorescence-based cell-based high throughput dose response assay to identify hTAAR1 agonist that also desensitize TAAR1 receptor response.; assay type: functional
[14] = blockers of HIV-1 ZM109 envelope-driven cell-cell fusion – HeLa effector, CEM target cells, luciferase, cherry-pick, dose response (AID 652058); assay type: functional, cell-based;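 further: luciferase signal from HIV-1 Env mediated cell-cell fusion of effector and target cells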
[15] = off-target signal loss in HeLa-CEM21 co-culture – HeLa F-luc CTL cells, cherry-picked, counter-screen for HIV-1 Env fusion inhibitor project, dose response (AID 652040); assay type: functional, cell-based;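 further: potency for signal decrease marking cytotoxic or nonspecific inhibition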
[16] = blockers of HIV-1 envelope-mediated cell-cell fusion – cherry-pick, dose response (AID 652057); assay type: functional, cell-based
[17] = HIV-1 AD8 envelope cell-cell fusion blockers – cherry-pick, dose response (AID 652062); assay type: functional, cell-based;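 further: luciferase signal from cell-cell fusion driven by HIV-1 clade B AD8 Env; potency is for inhibitors of fusion seen as a drop in luminescence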
[18] = blockers of bursicon-stimulated LGR2 cAMP reporter – cell-based, HEK293, CRE-luciferase reporter, cherry pick, set 2, dose response (AID 743343); assay type: functional;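 further: transfected cells were stimulated with diluted bursicon conditioned medium after compound addition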
[19] = A549 cell cytotoxicity, dose response, cytotoxicity control, plate reader, cherry-pick, antagonist series (AID 743412); assay type: functional, cell-based
[20] = blockade of melanocortin 4 receptor signaling – cell-based, plate reader, cherry pick, counter-screen for LGR2 antagonist project, dose response (AID 743444); assay type: functional;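 further: transfected HEK 293 cells stimulated with alpha-MSH peptide; potency of inhibitors of the alpha-MSH evoked signal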
[21] = IGROV1 cell killing – plate reader, dry powder samples, PAX8 inhibitor project, dose response (AID 743043); assay type: functional, cell-based; settings: IGROV-1
BJ [22] = test: BJ-TERT fibroblast viability loss – cell-based, RAS-independent, luminescence, dose response (AID 1933); assay type: functional; settings: Homo sapiens
BJ [23] = test: cells; assay type: functional, cell-based; settings: Homo sapiens
BJ [24] = test: BJ-TERT-LT-ST fibroblast viability loss – cell-based, RAS-independent, luminescence, dose response (AID 1935); assay type: functional; settings: Homo sapiens;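 further: BJ fibroblasts immortalized with TERT plus LT and ST oncogenes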
[25] = DRD fibroblast viability loss – cell-based, non-viral oncogenic, luminescence, dose response (AID 1934); assay type: functional; settings: Homo sapiens

Sequence of Cytochrome P450 3A4 (P08684 whole entry): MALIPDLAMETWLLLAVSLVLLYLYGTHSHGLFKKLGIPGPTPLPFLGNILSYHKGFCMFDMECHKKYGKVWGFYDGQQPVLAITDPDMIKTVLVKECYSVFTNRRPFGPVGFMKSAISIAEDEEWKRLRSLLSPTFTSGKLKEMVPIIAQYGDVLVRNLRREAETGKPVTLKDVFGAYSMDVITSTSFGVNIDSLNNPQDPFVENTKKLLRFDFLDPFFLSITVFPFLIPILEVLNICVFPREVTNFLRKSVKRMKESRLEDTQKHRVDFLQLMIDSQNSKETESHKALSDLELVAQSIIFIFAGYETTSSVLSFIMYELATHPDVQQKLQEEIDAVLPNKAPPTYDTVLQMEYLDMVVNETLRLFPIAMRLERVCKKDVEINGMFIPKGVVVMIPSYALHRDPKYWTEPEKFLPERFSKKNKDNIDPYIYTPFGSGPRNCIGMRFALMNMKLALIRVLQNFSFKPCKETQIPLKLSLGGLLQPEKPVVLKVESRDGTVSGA
Sequence of Paired box protein Pax-8 (Q06710 whole entry): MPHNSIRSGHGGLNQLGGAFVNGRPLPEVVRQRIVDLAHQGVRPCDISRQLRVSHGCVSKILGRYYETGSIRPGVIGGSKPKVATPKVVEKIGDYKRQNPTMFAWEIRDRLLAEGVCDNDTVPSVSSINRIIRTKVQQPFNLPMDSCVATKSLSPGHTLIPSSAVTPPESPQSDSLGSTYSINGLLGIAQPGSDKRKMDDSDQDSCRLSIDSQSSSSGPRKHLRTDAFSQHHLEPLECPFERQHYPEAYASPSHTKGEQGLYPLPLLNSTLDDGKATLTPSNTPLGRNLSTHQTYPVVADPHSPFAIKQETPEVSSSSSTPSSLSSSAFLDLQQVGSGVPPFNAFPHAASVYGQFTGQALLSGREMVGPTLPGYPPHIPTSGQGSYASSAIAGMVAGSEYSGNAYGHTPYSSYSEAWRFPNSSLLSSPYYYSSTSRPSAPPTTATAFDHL

CNC(=O)C1(C)C=CC2(CCCCC2)N1C(C)=O (configuration not stated)
AC50 (Cytochrome P450 3A4): 15.8 µM (inconclusive)

COC1=CC(=O)OC(CCc2ccccc2)C1 (configuration not stated)
AC50 (Cytochrome P450 3A4): 12.6 µM (inconclusive)

C[C@H](CO)N1C[C@H](C)[C@@H](CN(C)S(=O)(=O)c2cccc(F)c2)OCc2ccccc2-c2c(n(C)c3ccccc23)C1=O
AC50 [1]: > 70 µM (inactive) | AC50 [2]: 43.2 µM (active) | AC50 [3]: 4.19 µM (active) | AC50 (Paired box protein Pax-8): 11.1 µM (active)

CCOC(=O)CNC(=O)CNC(=O)c1nn(-c2ccc(OC)c(Cl)c2)c(=O)c2ccccc12
CC50 [4]: > 40 µM (active) | IC50 (cells [5]): 17.8 µM (active)

COc1cc2cc[n+]3cc4c(OC)c(OC)ccc4cc3c2cc1OC
AC50 (Cytochrome P450 3A4): 20 µM (inconclusive)

CCN(CC)CCNC(=O)c1cc2c(=O)n(C)c3ccccc3c2s1
AC50 [6]: 19.6 µM (active) | IC50 [7]: > 20 µM (inactive)

CCN(CC)CCCNC(=O)c1ccc2c3n(nc2c1)-c1ccc(Cl)cc1CO3
EC50 [8]: 3.59 µM (active) | EC50 (H4): 0.334 µM (active) | EC50 [9]: 101 µM (active) | AC50 [6]: 44.5 µM (active)

O=C(CCn1c(=S)[nH]c2cc3c(cc2c1=O)OCO3)NCCc1ccccc1Cl
EC50 (cells [10]): > 29.9 µM (inactive) | EC50 [11]: 7.04 µM (active) | IC50 (cells [12]): > 29.9 µM (inactive) | IC50 [13]: 9.24 µM (active)

Cc1nnc(SCc2nc3ccccc3c(=O)n2-c2ccccc2Cl)n1N
AC50 [14]: 4.98 µM (active) | AC50 [15]: 4.79 µM (active) | AC50 [16]: 4.45 µM (active) | AC50 [17]: 10.2 µM (active)

Nc1c(NCCc2ccccc2)c2ccccc2oc1=O
EC50 (cells [10]): > 29.9 µM (inactive) | EC50 [11]: 1.86 µM (active) | IC50 (cells [12]): > 29.9 µM (inactive) | IC50 [13]: 6.4 µM (active)

COc1cccc(OC)c1C(=O)NCCc1ccccc1
EC50 (cells [10]): > 29.9 µM (inactive) | EC50 [11]: 2.64 µM (active) | IC50 (cells [12]): > 29.9 µM (inactive) | IC50 [13]: 9.6 µM (active)

COCCOc1cc(NCc2ccccc2)c2ncn(C(C)C)c2c1
AC50 [18]: 12 µM (active) | AC50 [19]: 44.3 µM (active) | AC50 [20]: 17.9 µM (active)

c1ccc(-c2nc(NCCCn3ccnc3)c3oc4ccccc4c3n2)cc1
AC50 [6]: 100 µM (inactive)

C[C@@H]1CN([C@@H](C)CO)C(=O)Cc2cc(N(C)C)ccc2O[C@H]1CN(C)Cc1ccc(C(=O)Nc2ccccc2N)cc1
AC50 [1]: > 70 µM (inactive) | AC50 [2]: < 0.26 µM (active) | AC50 [21]: 45.1 µM (active) | AC50 (Paired box protein Pax-8): 16.6 µM (active)

CC1=C(C(=O)OCc2ccccc2)C(c2ccc(C(F)(F)F)cc2)NC(=O)N1CCCCCC(=O)O (configuration not stated)
AC50 (Cytochrome P450 3A4): 15.8 µM (inconclusive)

Cc1ccsc1/C=N/NC(=O)Cn1nc(C)c([N+](=O)[O-])c1C
EC50 (cells [10]): > 29.9 µM (inactive) | EC50 [11]: 3.79 µM (active) | IC50 (cells [12]): > 29.9 µM (inactive) | IC50 [13]: 5.81 µM (active)

COc1ccc(-c2cc(=O)c3c(O)c(OC)c(OC)c(OC)c3o2)cc1OC [5-DEMETHYLNOBILETIN]
AC50 (Cytochrome P450 3A4): 10 µM (inconclusive)

CCc1ccc(CN(C(=O)COc2c(C)cccc2C)C2CCS(=O)(=O)C2)cc1 (configuration not stated)
EC50 (BJ [22]): > 150 µM (not active) | EC50 (BJ [23]): > 150 µM (not active) | EC50 (BJ [24]): > 150 µM (inconclusive) | EC50 [25]: > 150 µM (not active)

C[C@@H]1CN([C@H](C)CO)C(=O)c2cc(NC(=O)Nc3ccc(C(F)(F)F)cc3)ccc2O[C@@H](C)CCCCO[C@@H]1CN(C)Cc1ccc2c(c1)OCO2
AC50 [1]: 26.4 µM (active) | AC50 [2]: 25.1 µM (active) | AC50 [21]: 28.4 µM (active) | AC50 (Paired box protein Pax-8): 5.56 µM (active)

CCN1C(=O)[C@H]2[C@@H](c3ccc(C)cc3)N3C(=O)N(c4cccc(Br)c4)C(=O)[C@@]3(CC)[C@H]2C1=O
AC50 [14]: 3.01 µM (active) | AC50 [15]: 6.04 µM (active) | AC50 [16]: 4.44 µM (active) | AC50 [17]: 1.18 µM (active)
